From patent US10035759B2, “Method of chromatographic separation” (The Procter & Gamble Company, priority 2015, dated 2018)

Tested on: human TRPM8
Test: TRPM8 FLIPR assay: intracellular Ca2+ level in HEK-293 cells stably transfected with human TRPM8
Assay type: cell-based
Settings: dose 30 uM
Protocol: TRPM8 activation was determined by measuring intracellular calcium ion (Ca^2+) level from transfected cells with the TRPM8 receptor gene, as described in CELL CULTURE PROTOCOL EXAMPLE, the results of which are shown in TABLES 2 and 3.
To determine what effect, if any, test compounds had on TRPM8 (SEQ ID NO: 1) activation the protocols listed below were used.
TRPM8 Protocol-FLIPR Assay
To determine whether TRPM8 is activated, the intracellular calcium ion (Ca^2+) level was measured from transfected cells with the TRPM8 receptor sequence (SEQ ID NO: 1). HEK-293 (human embryonic kidney) cells stably transfected with human TRPM8 were grown in 15 ml growth medium (high glucose DMEM (Dulbecco's Modification of Eagle's Medium) supplemented with 10% FBS (fetal bovine serum), 100 ug/ml penicillin/streptomycin, 5 μg/ml blasticindin, and 100 μg/ml zeocin) in a 75 cm^2 flask for 3 days at 37° C. in a mammalian cell culture incubator set at 5% CO2. Cells were detached with addition of 2 ml of trypsin-EDTA buffer (GIBCO® 25200, Invitrogen, Grand Island, N.Y.) for about 2-3 min. Trypsin was inactivated by addition of 8 ml growth medium. Cells were transferred to a 50 ml tube and centrifuged at 850 rpm for 3 minutes to remove medium. After centrifugation, a pellet of cells was formed in the bottom of the tube separating them from the supernatant solution. […] Fluo-4 AM is a fluorescent dye used for quantifying cellular Ca^2+ concentrations in the 100 nM to 1 microM range. […]
The pelleted cells were re-suspended in 10 ml assay buffer and 90 al aliquots (˜50,000 cells) per well delivered to a 96-well assay plate containing 10 al of test compounds (1 mM in assay buffer, […]) or buffer control and incubated at room temperature for 30 minutes. After 30 minutes, a plate was placed into a fluorometric imaging plate reader (FLIPR TETRA from Molecular Devices, Sunnyvale, Calif.) and basal fluorescence recorded (excitation wave length 488 nm and emission wave length 510 nm). Then 20 μl of 180 μM solution of TRPM8 agonist WS5 coolant was added to the assay buffer and the fluorescence signals were automatically recorded by FLIPR. For determining the direct effect of test compounds on TRPM8, fluorescence was measured immediately after addition of each compound (TABLES 2 and 3). Additional discussion of the FLIPR method can be found in Smart et al., Characterization using FLIPR of human vanilloid VR1 receptor pharmacology, European Journal of Pharmacology 417, 51-58 (2001) and Liu et al., Development and validation of a platelet calcium flux assay using a fluorescent imaging plate reader, Analytical Biochemistry 357, 216-224 (2006).

CCOC(=O)CNC(=O)C1CC(C)CCC1C(C)C (stereo not shown) [WS-5, N-ethoxycarbonylmethyl-ρ-menthan-3-carboxamide]
100.0%: 50 sec % of WS5 (50 sec) | 3 min % of WS5 (3 min) | 5 min % of WS5 (5 min) | 10 min % of WS5 (10 min)
